Values of other authors as cited in patent US20220354806A1, “COMPOSITION FOR IMPROVING MEMORY” (BGG JAPAN CO., LTD., priority 2019, published 2022).

Key:
[1] = greater than that of a vitamin E
[2] = after ingesting compared with before ingesting; no placebo comparison
[3] = placebo group ingesting corn oil

CC1=C(/C=C/C(C)=C/C=C/C(C)=C/C=C/C=C(C)/C=C/C=C(C)/C=C/C2=C(C)C(=O)C(O)CC2(C)C)C(C)(C)CC(O)C1=O (stereo not drawn) [astaxanthin, 3,3′-dihydroxy-β,β-carotene-4,4′-dione]
anti-oxidation effect relative to vitamin E [1]: 1000 times
correct answer rate in the operation of the "working memory" [2]: improved
response time of all 5 operations (simple reaction, choice reaction, working memory, delayed recall, divided attention) [2]: improved
improvement effect on the human cognitive function, astaxanthin group vs placebo group [3]: a significant difference of the improvement effect on the human cognitive function is not confirmed
